Where two headings read alike, the source gives them in different places.

What all share (format): cell-based
Experiment [1] deals with T1, protein kinases (human kinome) (Homo sapiens, UniProt Q9NRH2).
T1 sequence (Q9NRH2 1-765): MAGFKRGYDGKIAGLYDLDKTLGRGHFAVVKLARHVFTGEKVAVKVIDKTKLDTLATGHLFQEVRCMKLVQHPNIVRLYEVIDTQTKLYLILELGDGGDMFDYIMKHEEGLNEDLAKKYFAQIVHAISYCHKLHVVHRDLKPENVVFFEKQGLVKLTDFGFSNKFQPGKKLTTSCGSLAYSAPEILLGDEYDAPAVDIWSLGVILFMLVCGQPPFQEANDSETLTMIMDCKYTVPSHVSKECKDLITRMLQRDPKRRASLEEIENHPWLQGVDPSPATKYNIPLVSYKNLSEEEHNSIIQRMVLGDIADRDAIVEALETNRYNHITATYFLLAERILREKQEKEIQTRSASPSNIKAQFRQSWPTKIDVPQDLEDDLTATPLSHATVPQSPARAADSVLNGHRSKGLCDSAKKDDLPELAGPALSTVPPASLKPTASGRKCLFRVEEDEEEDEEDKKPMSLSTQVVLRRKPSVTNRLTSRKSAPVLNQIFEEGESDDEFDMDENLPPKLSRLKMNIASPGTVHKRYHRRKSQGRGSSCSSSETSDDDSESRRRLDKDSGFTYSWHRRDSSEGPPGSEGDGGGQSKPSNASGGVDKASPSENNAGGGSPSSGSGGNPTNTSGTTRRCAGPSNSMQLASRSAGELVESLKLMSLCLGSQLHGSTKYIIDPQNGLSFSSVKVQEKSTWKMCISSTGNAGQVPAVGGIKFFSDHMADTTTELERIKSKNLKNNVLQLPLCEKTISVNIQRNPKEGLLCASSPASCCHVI
The note with it: for logFC: SNRK (Q9NRH2).

Experiment [2] addresses protein kinases (human kinome) (Homo sapiens, UniProt Q9Y2K2). The following applies: for logFC: SIK3 (Q9Y2K2).
Experiment [3] has as its target protein kinases (human kinome) (Homo sapiens, UniProt O43353). The following applies: for logFC: RIPK2 (O43353-1).
Experiment [4] addresses T2, protein kinases (human kinome) (Homo sapiens, UniProt P42680).
T2 sequence (P42680 1-631): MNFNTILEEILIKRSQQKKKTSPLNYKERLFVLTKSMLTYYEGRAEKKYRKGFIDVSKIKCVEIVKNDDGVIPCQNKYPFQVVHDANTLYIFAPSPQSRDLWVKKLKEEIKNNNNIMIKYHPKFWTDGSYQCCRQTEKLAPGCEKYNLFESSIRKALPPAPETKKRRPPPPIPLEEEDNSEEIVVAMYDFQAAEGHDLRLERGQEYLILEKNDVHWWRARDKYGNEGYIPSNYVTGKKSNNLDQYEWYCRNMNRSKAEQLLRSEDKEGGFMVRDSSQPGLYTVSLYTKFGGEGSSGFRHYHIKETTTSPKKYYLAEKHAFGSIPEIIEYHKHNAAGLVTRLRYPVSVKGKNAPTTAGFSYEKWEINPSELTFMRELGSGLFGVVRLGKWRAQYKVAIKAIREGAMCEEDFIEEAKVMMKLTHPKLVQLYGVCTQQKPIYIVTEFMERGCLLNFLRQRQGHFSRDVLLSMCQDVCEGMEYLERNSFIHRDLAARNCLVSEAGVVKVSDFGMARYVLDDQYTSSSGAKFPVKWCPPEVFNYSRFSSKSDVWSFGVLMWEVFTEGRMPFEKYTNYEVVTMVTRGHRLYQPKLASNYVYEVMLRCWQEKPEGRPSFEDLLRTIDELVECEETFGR
The note with it: TEC (P42680).

The target of experiment [5] is protein kinases (human kinome) (Homo sapiens, UniProt P31751). The following applies: AKT2 (P31751).
Chain of protein kinases (human kinome) (Homo sapiens, UniProt P31751) (P31751 whole entry): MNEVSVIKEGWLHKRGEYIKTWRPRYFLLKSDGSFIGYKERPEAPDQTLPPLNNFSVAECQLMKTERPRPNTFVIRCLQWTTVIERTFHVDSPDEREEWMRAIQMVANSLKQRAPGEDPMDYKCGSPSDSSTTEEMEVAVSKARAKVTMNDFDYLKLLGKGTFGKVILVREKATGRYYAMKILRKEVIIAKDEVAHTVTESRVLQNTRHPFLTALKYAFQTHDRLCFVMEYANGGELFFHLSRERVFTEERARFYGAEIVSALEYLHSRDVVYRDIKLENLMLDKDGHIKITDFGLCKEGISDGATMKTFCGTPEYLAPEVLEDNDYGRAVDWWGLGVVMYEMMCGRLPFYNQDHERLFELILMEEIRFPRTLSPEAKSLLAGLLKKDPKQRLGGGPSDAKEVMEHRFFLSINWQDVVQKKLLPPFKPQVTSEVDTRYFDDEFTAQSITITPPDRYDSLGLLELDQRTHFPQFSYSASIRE
The target in experiment [6] is protein kinases (human kinome) (Homo sapiens, UniProt Q9P1W9). The following applies: experiment wp076; for logFC: PIM2 (Q9P1W9).
Chain of protein kinases (human kinome) (Homo sapiens, UniProt Q9P1W9) (Q9P1W9 whole entry): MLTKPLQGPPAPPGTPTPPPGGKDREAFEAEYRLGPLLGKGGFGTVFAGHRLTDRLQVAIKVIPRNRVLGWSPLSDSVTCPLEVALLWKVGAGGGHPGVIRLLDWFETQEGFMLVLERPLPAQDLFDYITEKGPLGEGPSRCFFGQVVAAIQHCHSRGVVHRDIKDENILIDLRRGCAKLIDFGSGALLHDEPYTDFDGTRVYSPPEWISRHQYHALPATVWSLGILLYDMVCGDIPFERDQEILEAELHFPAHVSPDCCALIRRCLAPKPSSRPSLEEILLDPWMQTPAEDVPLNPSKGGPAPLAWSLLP
Experiment [7] has as its target protein kinases (human kinome) (Homo sapiens, UniProt P49674). The note with it: CSNK1E P49674.
For experiment [8], the target named is protein kinases (human kinome) (Homo sapiens, UniProt Q00536). The note with it: Experiment wp172.
Chain of protein kinases (human kinome) (Homo sapiens, UniProt Q00536) (Q00536 whole entry): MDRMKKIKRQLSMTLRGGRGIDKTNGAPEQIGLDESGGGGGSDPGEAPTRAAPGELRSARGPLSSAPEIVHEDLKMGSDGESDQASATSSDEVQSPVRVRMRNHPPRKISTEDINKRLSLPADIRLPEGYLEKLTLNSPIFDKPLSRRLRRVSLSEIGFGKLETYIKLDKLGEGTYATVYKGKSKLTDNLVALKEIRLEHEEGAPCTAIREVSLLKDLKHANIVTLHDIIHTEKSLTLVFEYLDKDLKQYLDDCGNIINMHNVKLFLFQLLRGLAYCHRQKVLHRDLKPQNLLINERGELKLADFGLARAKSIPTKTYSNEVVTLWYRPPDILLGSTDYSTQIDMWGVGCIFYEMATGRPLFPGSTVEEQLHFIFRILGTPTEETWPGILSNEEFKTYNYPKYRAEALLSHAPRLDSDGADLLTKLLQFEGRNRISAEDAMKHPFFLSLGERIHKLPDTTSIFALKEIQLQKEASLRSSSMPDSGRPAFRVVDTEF
Setting [9] is: experiment wp107, direction down.
Setting [10] is: experiment wp137, direction down.

Chain of protein kinases (human kinome) (Homo sapiens, UniProt Q9Y2K2) (Q9Y2K2 whole entry): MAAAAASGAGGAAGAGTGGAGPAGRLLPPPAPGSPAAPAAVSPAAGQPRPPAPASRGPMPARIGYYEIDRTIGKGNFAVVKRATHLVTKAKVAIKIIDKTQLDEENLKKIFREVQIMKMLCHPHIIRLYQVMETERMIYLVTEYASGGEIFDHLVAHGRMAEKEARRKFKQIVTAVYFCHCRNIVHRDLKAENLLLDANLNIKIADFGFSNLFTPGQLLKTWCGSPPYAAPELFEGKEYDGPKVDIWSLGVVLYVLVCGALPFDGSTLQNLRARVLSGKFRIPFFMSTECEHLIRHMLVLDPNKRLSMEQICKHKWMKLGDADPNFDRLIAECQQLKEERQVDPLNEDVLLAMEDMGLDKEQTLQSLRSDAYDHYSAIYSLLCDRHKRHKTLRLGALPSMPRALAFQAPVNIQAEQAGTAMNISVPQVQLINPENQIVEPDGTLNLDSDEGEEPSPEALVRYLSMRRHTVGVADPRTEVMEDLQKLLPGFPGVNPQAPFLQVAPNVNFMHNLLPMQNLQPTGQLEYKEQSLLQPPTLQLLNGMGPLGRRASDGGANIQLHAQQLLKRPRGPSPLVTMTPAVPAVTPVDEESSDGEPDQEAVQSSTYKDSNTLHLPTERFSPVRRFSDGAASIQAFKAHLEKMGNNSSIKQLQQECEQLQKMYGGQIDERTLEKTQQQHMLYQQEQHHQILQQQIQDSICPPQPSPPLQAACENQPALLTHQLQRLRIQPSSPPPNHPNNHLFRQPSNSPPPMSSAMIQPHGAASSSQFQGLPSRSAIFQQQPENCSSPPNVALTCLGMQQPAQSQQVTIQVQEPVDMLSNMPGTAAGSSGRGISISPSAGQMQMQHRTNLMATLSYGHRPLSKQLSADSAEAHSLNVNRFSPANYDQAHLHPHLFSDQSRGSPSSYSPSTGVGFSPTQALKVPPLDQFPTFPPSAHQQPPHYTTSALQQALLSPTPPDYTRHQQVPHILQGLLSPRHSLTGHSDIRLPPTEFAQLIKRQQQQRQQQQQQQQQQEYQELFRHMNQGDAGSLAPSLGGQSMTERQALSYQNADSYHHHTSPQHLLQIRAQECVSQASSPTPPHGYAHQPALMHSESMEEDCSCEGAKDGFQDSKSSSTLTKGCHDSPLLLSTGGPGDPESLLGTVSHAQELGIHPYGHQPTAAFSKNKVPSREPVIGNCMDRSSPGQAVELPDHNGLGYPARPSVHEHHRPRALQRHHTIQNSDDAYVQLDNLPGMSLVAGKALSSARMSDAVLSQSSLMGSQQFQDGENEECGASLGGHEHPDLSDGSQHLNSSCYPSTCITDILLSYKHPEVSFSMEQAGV
Chain of protein kinases (human kinome) (Homo sapiens, UniProt P49674) (P49674 whole entry): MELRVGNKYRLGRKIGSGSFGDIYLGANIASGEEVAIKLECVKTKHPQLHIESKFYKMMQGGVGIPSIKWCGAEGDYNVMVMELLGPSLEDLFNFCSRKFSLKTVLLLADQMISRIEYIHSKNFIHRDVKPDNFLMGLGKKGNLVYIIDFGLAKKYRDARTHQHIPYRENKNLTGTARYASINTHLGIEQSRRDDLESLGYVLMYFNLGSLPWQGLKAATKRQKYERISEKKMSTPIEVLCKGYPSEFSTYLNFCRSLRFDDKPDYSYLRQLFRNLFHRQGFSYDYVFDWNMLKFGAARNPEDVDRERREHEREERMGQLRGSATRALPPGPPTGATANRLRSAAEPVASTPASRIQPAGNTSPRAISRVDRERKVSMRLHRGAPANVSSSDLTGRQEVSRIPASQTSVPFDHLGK
Chain of protein kinases (human kinome) (Homo sapiens, UniProt O43353) (O43353 whole entry): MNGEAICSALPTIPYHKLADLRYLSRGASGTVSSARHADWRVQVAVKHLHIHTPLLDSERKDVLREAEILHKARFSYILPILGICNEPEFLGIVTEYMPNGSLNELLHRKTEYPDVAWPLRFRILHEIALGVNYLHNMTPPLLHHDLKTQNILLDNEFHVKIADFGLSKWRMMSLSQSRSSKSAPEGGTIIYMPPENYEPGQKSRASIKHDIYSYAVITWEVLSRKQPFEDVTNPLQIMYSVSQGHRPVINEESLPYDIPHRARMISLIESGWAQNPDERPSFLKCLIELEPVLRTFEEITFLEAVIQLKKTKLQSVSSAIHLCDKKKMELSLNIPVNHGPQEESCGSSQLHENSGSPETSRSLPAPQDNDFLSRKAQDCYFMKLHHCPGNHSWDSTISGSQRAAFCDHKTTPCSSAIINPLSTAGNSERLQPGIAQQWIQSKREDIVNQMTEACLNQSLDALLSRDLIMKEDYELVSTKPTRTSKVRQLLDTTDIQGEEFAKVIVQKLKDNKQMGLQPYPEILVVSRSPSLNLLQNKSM

With `O=C(COc1cccc2c1C(=O)N(C1CCC(=O)NC1=O)C2=O)NCCCCCCCN1CCc2cc(Nc3ncc(C4CC4)c(NCCCNC(=O)C4CCC4)n3)ccc2C1` (centres unmarked) [BSJ.04.178], in experiment [1] (experiment wp134), the logFC is −1.523 and the “logFC of SNRK (Q9NRH2)” value is given as −1.523.

Consider `Cc1ncsc1-c1ccc([C@H](C)NC(=O)[C@@H]2C[C@@H](O)CN2C(=O)[C@@H](NC(=O)CCCCCN2CCc3cc(Nc4ncc(C5CC5)c(NCCCNC(=O)C5CCC5)n4)ccc3C2)C(C)(C)C)cc1` [BSJ.05.026], for which the “logFC of SNRK (Q9NRH2)” value in experiment [1] (Experiment wp195) is reported as −1.856. Further, the values for the logFC in experiment [1] (experiment wp195) and in experiment [2] (experiment wp195) were −1.856 and −1.186, respectively. Moreover, the “logFC of SIK3 (Q9Y2K2)” value in experiment [2] (Experiment wp195) is −1.186.

Regarding `Cc1ccc(NC(=O)c2cccc(C(F)(F)F)c2)cc1N1Cc2cnc(Nc3ccc(N4CCN(Cc5cn(CCCCCOc6cccc7c6C(=O)N(C6CCC(=O)NC6=O)C7=O)nn5)CC4)nc3)nc2N(C)C1=O` (centres unmarked) [DB0646, N-(3-(7-((6-(4-((1-(5-((2-(2,6-Dioxopiperidin-3-yl)-1,3-dioxoisoindolin-4-yl)oxy)pentyl)-1H-1,2,3-triazol-4-yl)methyl)piperazin-1-v)pyridin-3-yl)amino)-1-methyl-2-oxo-1,4-dihydropyrimido[4,5-d]pyrimidin-3(2H)-yl)-4-methylphenyl)-3-(trifluoromethyl)benzamide], the entries for the “logFC of RIPK2 (O43353-1)” value in experiment [3] (Experiment wp172) and in experiment [3] (experiment wp105) were −0.4779 and −0.4215, respectively. The logFC was −0.4215 in experiment [3] (experiment wp105), −0.4779 in experiment [3] (experiment wp172), −0.8282 in experiment [4] (experiment wp107) and −0.8282 in experiment [4] (setting [9]).

For `Cc1ccc(NC(=O)c2cccc(C(F)(F)F)c2)cc1N1Cc2cnc(Nc3ccc(N4CCN(CCCCC(=O)N[C@H](C(=O)N5C[C@H](O)C[C@H]5C(=O)N[C@@H](C)c5ccc(-c6scnc6C)cc5)C(C)(C)C)CC4)nc3)nc2N(C)C1=O` [DB1113], in experiment [2] (Experiment wp168), the “logFC of SIK3 (Q9Y2K2)” value is listed as −1.602. The logFC in experiment [2] (experiment wp168) is on record as −1.602.

Consider `C[C@@H]1C[C@@H](O)c2ncnc(N3CCN(C(=O)[C@H](CNCCCCCCCCCCc4cccc5c4C(=O)N(C4CCC(=O)NC4=O)C5=O)c4ccc(Cl)cc4)CC3)c21` (some centres unmarked) [INY.03.041.01], for which the logFC in experiment [5] (experiment wp118) is −2.777; in experiment [5] (experiment wp118, direction down), −2.777; in experiment [5] (experiment wp135, 4 hr), −1.739; in experiment [5] (experiment wp135, 4 hr, direction down), −1.739.

Turning to `CCc1cnn2c(N(Cc3ccc(N)nc3)C(=O)CCOCCOCCOCCNC(=O)CNc3cccc4c3C(=O)N(C3CCC(=O)NC3=O)C4=O)cc(N3CCCC[C@H]3CCO)nc12` (some centres unmarked) [MFH.5.115.2], in experiment [6], the logFC was −1.679 and the “logFC of PIM2 (Q9P1W9)” value is on record as −1.679.

For the compound `O=C1CCC(N2C(=O)c3cccc(NCCCCCCCCN4CCC(NC(=O)c5[nH]ncc5NC(=O)c5c(Cl)cccc5Cl)CC4)c3C2=O)C(=O)N1` (centres unmarked) [MFH.5.126.1], in experiment [6], the logFC was −3.019 and the “logFC of PIM2 (Q9P1W9)” value was −3.019.

For the compound `Cc1ncsc1-c1ccc([C@H](C)NC(=O)[C@@H]2C[C@@H](O)CN2C(=O)[C@@H](NC(=O)CCCCCN2CCN(c3ccc(Nc4ncc5scc(-c6cccc(NS(C)(=O)=O)c6)c5n4)cc3)CC2)C(C)(C)C)cc1` [RSS0680, (2S,4R)-1-((S)-3,3-Dimethyl-2-(6-(4-(4-((7-(3-(methylsulfonamido)phenyl)thieno[3,2-d]pyrimidin-2-yl)amino)phenyl)piperazin-1-yl)hexanamido)butanoyl)-4-hydroxy-N—((S)-1-(4-(4-methylthiazol-5yl)phenyl)ethyl)pyrrolidine-2-carboxamide], the “logFC of SNRK (Q9NRH2)” value in experiment [1] (Experiment wp117) is −0.6321; in experiment [1] (experiment wp080), −0.5567. The results for the logFC in experiment [1] (experiment wp080) and in experiment [1] (experiment wp117) were −0.5567 and −0.6321, respectively.

Regarding `Nc1ncnc2c1c(-c1ccc(Oc3ccccc3)cc1)nn2[C@H]1CC[C@H](N2CCN(CCOCCNC(=O)CNc3cccc4c3C(=O)N(C3CCC(=O)NC3=O)C4=O)CC2)CC1` (some centres unmarked) [SB1.G.181], in experiment [7] (experiment wp071), the logFC is recorded as −1.189 and the “logFC CSNK1E” value is on record as −1.189.

`CC(C)S(=O)(=O)c1ccccc1Nc1nc(Nc2ccc(N3CCN(CCOCCNC(=O)CNc4cccc5c4C(=O)N(C4CCC(=O)NC4=O)C5=O)CC3)cc2)ncc1Cl` (centres unmarked) [SK.3.91]: the “logFC CDK16 (Q00536-1)” value in experiment [8] is listed as −0.8169. Also, in experiment [8], the “logFC of CDK16 (Q00536-1)” value was −0.8169. Further, the logFC in experiment [4] (experiment wp103) is given as −0.6497; in experiment [4] (experiment wp103, direction down), −0.6497; in experiment [4] (experiment wp107), −1.146; in experiment [4] (setting [9]), −1.146; in experiment [5] (experiment wp105), −0.8722; in experiment [5] (experiment wp105, direction down), −0.8722. For the same compound, the logFC in experiment [5] (experiment wp107) and in experiment [5] (setting [9]) was −0.4141 throughout.

`CC(C)S(=O)(=O)c1ccccc1Nc1nc(Nc2ccc(N3CCN(CCOCCOCCNC(=O)CNc4cccc5c4C(=O)N(C4CCC(=O)NC4=O)C5=O)CC3)cc2)ncc1Cl` (centres unmarked) [TL12.186]: the figures for the logFC in experiment [7] (experiment wp137), in experiment [4] (experiment wp137) and in experiment [4] (setting [10]) were −0.4411, −2.11 and −2.11, respectively. Also, the “logFC CSNK1E” value in experiment [7] (experiment wp137) is −0.4411.

In the case of `CC(C)S(=O)(=O)c1ccccc1Nc1nc(Nc2ccc(N3CCN(CCOCCOCCC(=O)NCCNc4cccc5c4CN(C4CCC(=O)NC4=O)C5=O)CC3)cc2)ncc1Cl` (centres unmarked) [TL13.97], the logFC in experiment [4] (experiment wp137) and in experiment [4] (setting [10]) was −1.712 throughout.

Turning to `Cc1cc(Nc2ncc(Br)c(Nc3cccc(F)c3C(N)=O)n2)ccc1S(=O)(=O)NCCOCCOCCOCCOCCNc1cccc2c1C(=O)N(C1CCC(=O)NC1=O)C2=O` (centres unmarked) [TMX.02.174], the logFC is reported as −0.9362 in experiment [4] (experiment wp146) and −0.9362 in experiment [4] (experiment wp146, direction down).

Turning to `Nc1ncc(-c2ccc(S(=O)(=O)N(CCCNC(=O)CCOCCOCCOCCOCCOCCNc3cccc4c3C(=O)N(C3CCC(=O)NC3=O)C4=O)C3CC3)cc2)cc1-c1ccc2c(c1)CCNC2=O` (centres unmarked) [WH.10417.099], the logFC in experiment [7] (experiment wp056) is given as −1.591; in experiment [7] (experiment wp103), −1.306; in experiment [7] (experiment wp105) it was −0.8305; in experiment [7] (experiment wp107) it was −2.192; in experiment [7] (experiment wp172) it was −1.164. For the same compound, the “logFC CSNK1E” value in experiment [7] (experiment wp056) is −1.591; in experiment [7] (experiment wp103) it was −1.306; in experiment [7] (experiment wp105) it was −0.8305; in experiment [7] (experiment wp107) it was −2.192; in experiment [7] (experiment wp172) it was −1.164.

Values taken from US20240269139A1, “COMPOUNDS FOR TARGETED PROTEIN DEGRADATION OF KINASES” (DANA-FARBER CANCER INSTITUTE, INC., priority 2020, published 2024).
